According to PMC10048662, “Whole-Cell Biocatalytic Production of Acetoin with an aldC-Overexpressing Lactococcus lactis Using Soybean as Substrate” (Foods, 2023):

Biological target: T1, ALDC (α-acetolactate decarboxylase, aldC) (Lactiplantibacillus plantarum, UniProt F9UPY7)
T1 construct: gene aldB; expressed in Lactococcus lactis NZ9000 from pNZ8048, crude lysate supernatant; ALDC described as dimer
Assay: acetoin formation, creatine/α-naphthol colour reaction at […] nm
Assay type: biochemical
Details: crude lysate supernatant of nisin-induced cells; 30 °C, 20 min; uninduced cells as comparison

T1 sequence (F9UPY7 entry or part of it): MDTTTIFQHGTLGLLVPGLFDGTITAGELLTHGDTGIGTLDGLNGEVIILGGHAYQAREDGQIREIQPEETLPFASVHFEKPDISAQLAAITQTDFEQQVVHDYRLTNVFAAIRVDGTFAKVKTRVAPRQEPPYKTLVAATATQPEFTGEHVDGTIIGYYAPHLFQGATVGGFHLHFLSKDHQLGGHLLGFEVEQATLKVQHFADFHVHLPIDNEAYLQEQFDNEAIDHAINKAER

CC(=O)C(C)(O)C(=O)O (racemic) [α-acetolactate]
acetoin formation, creatine/α-naphthol colour reaction at 522 nm: the expressed ALDC can efficiently convert α-acetolactate to acetoin
